This passage reports inhibition and EC50 results from patent US20250042911A1, “NOVEL BENZOPYRAN DERIVATIVE AND USE THEREOF” (SPARK BIOPHARMA, INC, priority 2021, published 2025).

In the assay the test system is human M2 macrophages. Kind of assay: Inhibition of human M2 macrophage activity, hCCL22 in culture supernatant by ELISA. In kind it is cell-based. Conditions: for inhibition at 10 µM: Macrophage, hCCL22 inhibitory activity at 10 μM, 72 hours; for EC50: hCCL22 secretion, THP-1 derived M2-like macrophages, compound present during 72 hours of differentiation. On the procedure: To obtain human M2 macrophages, human monocytes (THP-1 monocyte, CD4 expression) were stabilized in a 96-well plate for 24 hours and then incubated in culture media containing 100 ng/mL phorbal 12-myristate-13-acetate (PMA; Sigma, P8139) for 24 hours to differentiate into M0 macrophages (macrophage-like phenotype). It was confirmed that differentiated M0 macrophages had reduced CD4 expression and expressed CD11b. M0 macrophages in the plate well were washed once with culture media and incubated in culture media containing 25 ng/mL hIL-4 (Peprotech, 200-04-50) and 25 ng/mL hIL-13 (Peprotech, 200-13-50) for 72 hours to differentiate into M2-like macrophages. Test compounds were diluted by concentration in M2 differentiation media and treated simultaneously during a differentiation period of 72 hours. The inhibitory effect of the test compounds on M2 macrophages was determined by measuring hCCL22 in the medium culture supernatant cultured for 72 hours using an ELISA assay (R&D system, DMD00). The results of the activity measurements are represented in Table 3 (EC50), Table 4 ([…] inhibitory activity at 5 μM) and Table 5 (hCCL22 inhibitory activity at 10 μM).

Structures can show the parent of a compound that is named as a salt.

What is called inhibition is the change of the read-out against control, counted positive when it falls. Usually EC50 stands for the midpoint of the concentration-response curve. High values mean a need for much substance, low ones an effect from little substance. As for `CC1(C)Oc2cc(NC3COC3)ccc2C2C1=CCn1c(=O)n(-c3ccc(F)cc3)c(=O)n12` (stereo not shown) [Example 35, 2-(4-fluorophenyl)-7,7-dimethyl-10-(oxetan-3-ylamino)-5,12b-dihydro-1H,7H-chromeno[4,3-c][1,2,4]triazolo[1,2-a]pyridazine-1,3(2H)-dione], the inhibition at 10 µM was determined as 96.7% and a half-maximal effect (EC50) was put at 4.8 µM.

For the compound `O=c1n(-c2ccccc2)c(=O)n2n1CC=C1C2c2ccc(O)cc2OC1(CF)CF` (stereo not shown) [Example 1, 7,7-bis(fluoromethyl)-10-hydroxy-2-phenyl-5,12b-dihydro-1H,7H-chromeno[4,3-c][1,2,4]triazolo[1,2-a]pyridazine-1,3(2H)-dione], the inhibition at 10 µM was 80.4%. The same measure, in the same setting: with `CC(=O)Nc1ccc2c(c1)OC(C)(C)C1=CCn3c(=O)n(-c4ccc(C(C)=O)cc4)c(=O)n3C12` (stereo not shown) [Example 3, N-(2-(4-acetylphenyl)-7,7-dimethyl-1,3-dioxo-2,3,5,12b-tetrahydroxy-1H,7H-chromeno[4,3-c][1,2,4]triazolo[1,2-a]pyridazin-10-yl)acetamide] the figure was 16.9%.

`CC(=O)c1ccc(-n2c(=O)n3n(c2=O)C2C(=CC3)C(C)(C)Oc3cc(N4CCC4)ccc32)cc1` (stereo not shown) [Example 141, 2-(4-acetylphenyl)-10-(azetidin-1-yl)-7,7-dimethyl-5,12b-dihydro-1H,7H-chromeno[4,3-c][1,2,4]triazolo[1,2-a]pyridazine-1,3(2H)-dione] came in with an inhibition at 10 µM of 94.2% and a concentration giving a half-maximal response (EC50) of 7.2 µM. Compound `CC1(C)Oc2cc(OP(=O)(O)O)ccc2C2C1=CCn1c(=O)n(-c3ccc(F)cc3)c(=O)n12` (stereo not shown) [Example 143, 2-(4-fluorophenyl)-7,7-dimethyl-1,3-dioxo-2,3,5,12b-tetrahydro-1H,7H-chromeno[4,3-c][1,2,4]triazolo[1,2-a]pyridazin-10-yl dihydrogen phosphate] returned an EC50 of 9.4 µM.

For the compound `CC(=O)c1ccc(-n2c(=O)n3n(c2=O)C2C(=CC3)C(C)(C)Oc3cc(N4CCN(S(C)(=O)=O)CC4)ccc32)cc1` (stereo not shown) [Example 52, 2-(4-acetylphenyl)-7,7-dimethyl-10-(4-(methylsulfonyl)piperazin-1-yl)-5,12b-dihydro-1H,7H-chromeno[4,3-c][1,2,4]triazolo[1,2-a]pyridazine-1,3(2H)-dione], a half-maximal response (EC50) required 26.4 µM. With `CC(C)(C)OC(=O)N1CCN(C(=O)c2ccc(-n3c(=O)n4n(c3=O)C3C(=CC4)C(C)(C)Oc4cc(O)ccc43)cc2)CC1` (stereo not shown) [Example 54, tert-butyl 4-(4-(10-hydroxy-7,7-dimethyl-1,3-dioxo-5,12b-dihydro-1H,7H-chromeno[4,3-c][1,2,4]triazolo[1,2-a]pyridazin-2(3H)-yl)benzoyl)piperazine-1-carboxylate], the EC50 worked out at 1.5 µM. As for `CC1(C)Oc2cc(O)ccc2C2C1=CCn1c(=O)n(-c3cccc(F)n3)c(=O)n12` (stereo not shown) [Example 12, 2-(6-fluoropyridin-2-yl)-10-hydroxy-7,7-dimethyl-5,12b-dihydro-1H,7H-chromeno[4,3-c][1,2,4]triazolo[1,2-a]pyridazine-1,3(2H)-dione], testing at 10 µM gave an inhibition of 16.8%.

`CCNc1ccc2c(c1)OC(C)(C)C1=CCn3c(=O)n(-c4ccc(C(C)=O)cc4)c(=O)n3C12` (stereo not shown) [Example 16, 2-(4-acetylphenyl)-10-(ethylamino)-7,7-dimethyl-5,12b-dihydro-1H,7H-chromeno[4,3-c][1,2,4]triazolo[1,2-a]pyridazine-1,3(2H)-dione] had an inhibition at 10 µM of 79.9% and an EC50 of 4 µM. `CC(=O)c1ccc(-n2c(=O)n3n(c2=O)C2C(=CC3)C(C)(C)Oc3cc(NC(C)C)ccc32)cc1` (stereo not shown) [Example 29, 2-(4-acetylphenyl)-10-(isopropylamino)-7,7-dimethyl-5,12b-dihydro-1H,7H-chromeno[4,3-c][1,2,4]triazolo[1,2-a]pyridazine-1,3(2H)-dione] registered an inhibition at 10 µM of 95.2% and an EC50 of 3.3 µM. As for `CC(=O)c1ccc(-n2c(=O)n3n(c2=O)C2C(=CC3)C(CF)(CF)Oc3cc(O)ccc32)cc1` (stereo not shown) [Example 2, 2-(4-acetylphenyl)-7,7-bis(fluoromethyl)-10-hydroxy-5,12b-dihydro-1H,7H-chromeno[4,3-c][1,2,4]triazolo[1,2-a]pyridazine-1,3(2H)-dione], the inhibition at 10 µM came out at 64.4%. Same read-out and setting: as for `CC(=O)c1ccc(-n2c(=O)n3n(c2=O)C2C(=CC3)C(C)(C)Oc3cc(S(C)(=O)=O)ccc32)cc1` (stereo not shown) [Example 4, 2-(4-acetylphenyl)-7,7-dimethyl-10-(methylsulfonyl)-5,12b-dihydro-1H,7H-chromeno[4,3-c][1,2,4]triazolo[1,2-a]pyridazine-1,3(2H)-dione], the figure is 51.9%; as for `CC(=O)c1ccc(-n2c(=O)n3n(c2=O)C2C(=CC3)C(C)(C)Oc3cc(N4CCOCC4)ccc32)cc1` (stereo not shown) [Example 8, 2-(4-acetylphenyl)-7,7-dimethyl-10-morpholino-5,12b-dihydro-1H,7H-chromeno[4,3-c][1,2,4]triazolo[1,2-a]pyridazine-1,3(2H)-dione], 60.7%. `CN1CCN(c2ccc3c(c2)OC(C)(C)C2=CCn4c(=O)n(-c5ccc(C(C)(C)C)cc5)c(=O)n4C23)CC1` (stereo not shown) [Example 48, 2-(4-(tert-butyl)phenyl)-7,7-dimethyl-10-(4-methylpiperazin-1-yl)-5,12b-dihydro-1H,7H-chromeno[4,3-c][1,2,4]triazolo[1,2-a]pyridazine-1,3(2H)-dione] yielded an EC50 of 9.7 µM. `CC(=O)c1ccc(-n2c(=O)n3n(c2=O)C2C(=CC3)C(C)(C)Oc3cc(NS(C)(=O)=O)ccc32)cc1` (stereo not shown) [Example 5, N-(2-(4-acetylphenyl)-7,7-dimethyl-1,3-dioxo-2,3,5,12b-tetrahydro-1H,7H-chromeno[4,3-c][1,2,4]triazolo[1,2-a]pyridazin-10-yl)methanesulfonamide] returned an inhibition at 10 µM of 42.3%. `CN1CCN(c2ccc3c(c2)OC(C)(C)C2=CCn4c(=O)n(-c5ccc(F)cc5)c(=O)n4C23)CC1` (stereo not shown) [Example 50, 2-(4-fluorophenyl)-7,7-dimethyl-10-(4-methylpiperazin-1-yl)-5,12b-dihydro-1H,7H-chromeno[4,3-c][1,2,4]triazolo[1,2-a]pyridazine-1,3(2H)-dione] came in with an EC50 of 25.6 µM. In other words, the double-digit micromolar range. The same measure, in the same setting: with `CC(=O)c1ccc(-n2c(=O)n3n(c2=O)C2C(=CC3)C(C)(C)Oc3cc(OC(=O)N4C(C)CN(C(=O)[C@@H]5CCCN5)CC4C)ccc32)cc1` (stereo partly shown) [Example 101, 2-(4-acetylphenyl)-7,7-dimethyl-1,3-dioxo-2,3,5,12b-tetrahydro-1H,7H-chromeno[4,3-c][1,2,4]triazolo[1,2-a]pyridazin-10-yl 2,6-dimethyl-4-prolylpiperazine-1-carboxylate hydrochloride] the figure was 17.9 µM; with `CC(=O)c1ccc(-n2c(=O)n3n(c2=O)C2C(=CC3)C(C)(C)Oc3cc(OC(=O)N4CCNCC4(C)C)ccc32)cc1` (stereo not shown) [Example 118, 2-(4-acetylphenyl)-7,7-dimethyl-1,3-dioxo-2,3,5,12b-tetrahydro-1H,7H-chromeno[4,3-c][1,2,4]triazolo[1,2-a]pyridazin-10-yl 2,2-dimethylpiperazine-1-carboxylate hydrochloride], 5.3 µM.
